Patent US20060135440A1, “Use of ribose to alleviate rhabdomyolysis and the side effects of statin drugs” (priority 2004, published 2006)

Assays:
Assay type in all cases: in vivo, human
[1] = tested on: statin drug-induced rhabdomyolysis patient; assay: Patient with drug-induced rhabdomyolysis given ribose (case report)
Description: They were started on a statin drug. Within three months they were diagnosed with rhabdomyolysis resulting in chronic renal failure and symptoms of extreme fatigue and muscle pain. The patient was placed on five grams of ribose, twice daily, after symptoms had persisted for about four months. […] They stayed on the regimen for about three months. Upon cessation of ribose administration, the fatigue and pain slowly returned, but not as severe as had been previously experienced.

[2] = tested on: patients with clinical statin-induced myalgias; assay: Placebo-controlled pilot study of ribose on muscle pain in patients with statin-induced myalgias; details: for Severity of symptoms, Mean (sd): scale 1=mild to 5=severe
Description: Thirty patients aged 20 to 80 years of age presently taking statins and showing clinical statin-induced myalgias were randomized in a six-week placebo-controlled study of the effect of ribose on muscle pain. Fifteen patients were given five grams of ribose twice a day to determine the improvement in clinical symptoms, using an objective patient questionnaire and physician interview. The primary symptom reported was muscle pain, but other symptoms commonly reported included fatigue, poor sleep, a decrease in mental clarity and a reduced sense of well-being. Fifteen patients presently taking statins were given five grams of glucose twice a day as a control. All patients were given a complete history and physical exam. The patient's assessment of muscle pain, soreness or cramping was graded on a scale of one to five, five being the most severe.
Exclusions: Statin-induced myopathy with elevated CPJK over twice normal • Statin-induced hepatopathy with elevated LFTs over twice normal Pregnancy • Insulin-dependant diabetes • Diseases known to be associated with myalgias, such as fibromyalgia, PMR, CTD, genetic or acquired myopathies • New drugs or supplements during the study period
Inclusions: • Patients on any FDA-approved statin at recommended doses. • Constant use of statin dose and any other drugs for at least four weeks prior to study entry
Ribose or glucose were given as a pill or powder and compliance was monitored by pill count or powder measurement on each visit, weekly during the four week study period. A questionnaire was developed to validate the study results.
The severity of symptoms were compared at each follow-up visit. Subjects were asked to rate the severity of symptoms on a scale from 1 to 5; 1=mild and 5=severe.

[3] = tested on: patients with chronic fatigue syndrome or fibromyalgia syndrome; assay: Pre- and post-ribose Visual Analog Scale assessment in chronic fatigue syndrome or fibromyalgia syndrome patients
Description: There is a cluster of diseases of unknown etiology that share some common symptoms. Included in this cluster are chronic fatigue syndrome, fibromyalgia syndrome and statin-induced myalgia. The most prominent symptoms is pain in the muscles, accompanied by pain in connective tissue (fibromyalgia), sleep disturbance, lack of mental clarity and feelings of well-being. In addition to the patients of Example 1 and 2, who presented with statin-induced myalgia, a mixed cohort of patients having given a physician's diagnosis of chronic fatigue syndrome or fibromyalgia syndrome were given a supply of D-ribose for self administration. Each patient served as his or her control, the results being reported as pre- and post-ribose administration. Compliance was estimated by the amount of the ribose supply remaining. Those patients having administered at least one-half of the 280 grams supply were included in the following summary. A total of 41 subjects were enrolled, of whom five were considered non-compliant and excluded from these analyses. Of the remaining 36 subjects, 78% were female, average age 48 years; 58% and 85% had been previously diagnosed with fibromyalgia and/or chronic fatigue syndrome. Twenty-nine subjects (81%) took a B-complex vitamin daily. The average length of time taking ribose was 25 days. The primary outcome measure was the initial versus final visit Visual Analog Scale (VAS) score: • 1. Visual Analog (well-being) Scale of 1-10 for five questions obtained before the first and after the last dose of ribose. • (A) How is your energy? (1=near dead and 10+excellent) • (B) How is your sleep? (1=no sleep and 10=8 hours of sleep a night without waking. • (C) How is your mental clarity? (1=brain dead and 10=good clarity) • (D) How bad is your pain? (1=very severe pain and 10=pain free) • (F) How is your overall sense of well-being? (1=near dead and 10=excellent) On taking the final dose, the patient was also asked in fill in: “much better, somewhat better, no change, somewhat worse and much worse.” The patients were also asked to comments on benefits or side effects. If they felt better, about how long did it take to feel better? Since the compliance was ascertained only by the amount of ribose remaining, the patients were asked to comment in more detail on their guesstimate of doses missed.

[4] = person, five grams of ribose twice daily, within one week
[5] = individualized response, ribose n = 12

O=C[C@H](O)[C@H](O)[C@H](O)CO [Ribose, D-ribose]
fatigue (patient report) [1, 4]: greatly reduced | muscle pain (patient report) [1, 4]: gone | symptoms after returning to the ribose regimen ([1]; ribose resumed a month after cessation, fatigue and pain had slowly returned): again experienced relief of symptoms | Severity of symptoms, Mean (sd) ([2]; Week 1, n = 15): 3.7 (0.8) | Severity of symptoms, Mean (sd) ([2]; Week 2, n = 13): 3.9 (0.8) | Severity of symptoms, Mean (sd) ([2]; Week 3, n = 12): 3.7 (0.8) | Severity of symptoms, Mean (sd) ([2]; Week 4, n = 12): 3.6 (1.0) | Severity of symptoms, Mean (sd) ([2]; Week 5, wash out period, n = 9): 3.4 (1.0) | Severity of symptoms, Mean (sd) ([2]; Week 6, wash out period, n = 8): 3.7 (0.8) | severity of symptoms at baseline ([2]; baseline, scale 1 to 5, placebo group 3.0): 3.7 | global assessment of symptom improvement: patients classified as Improved ([2]; five grams ribose twice a day, 11 of 13 ribose patients, placebo 3 of 14 (21%)): 85% | patients reporting a change in symptoms at end of test period ([2]; four weeks, 10 of 12 remaining ribose patients, placebo 5 of 14 (36%), p=0.02): 83% | patients with More than 50% improvement [2, 5]: 36% | patients with No improvement or worse [2, 5]: 27% | patients with Some improvement [2, 5]: 73% | patients with No improvement or worse ([2]; individualized response, ribose n = 12, listed as ribose): 27% | average improvement greater than the placebo group ([2]; repeated measures analysis adjusted for baseline severity difference, p=0.35): 0.10 units per week | patients experiencing at least some improvement during the study ([3]; 23 of the 35 patients answering the general question): 65.7% | VAS Energy, Post- Mean (std) ([3]; 36 patients, post-ribose, scale 1-10, pre-ribose 3.8 (1.1), average 25 days on ribose): 5.5 (1.5) | VAS Well-being, Post- Mean (std) ([3]; 36 patients, post-ribose, scale 1-10, pre-ribose 4.3 (1.3)): 5.6 (1.5) | VAS Sleep, Post- Mean (std) ([3]; 36 patients, post-ribose, scale 1-10, pre-ribose 4.8 (1.6)): 6.0 (1.9) | VAS Mental Clarity, Post- Mean (std) ([3]; 36 patients, post-ribose, scale 1-10, pre-ribose 4.9 (1.5)): 5.7 (1.7) | VAS Pain, Post- Mean (std) ([3]; 36 patients, post-ribose, scale 1=very severe pain, 10=pain free, pre-ribose 4.9 (2.3)): 5.6 (2.2) | patients reporting no change to somewhat worse than at the beginning of the study ([3]; general question at final dose): three
